The source of these data is US9822139B2, “Pharmaceutical composition containing cyclometalated N-heterocyclic carbene complexes for cancer treatment” (THE UNIVERSITY OF HONG KONG, priority 2009, dated 2017).

Molecules are shown by their SMILES.

For test [1], the system named is hepatocellular carcinoma (HepG2). Put plainly: MTT cytotoxicity assay, HepG2. Format: cell-based, human. Conditions: 72 h. The procedure: (§1) Example 2 describes the in vitro cytotoxicity, which is indicative of the induction of cell death and/or inhibition of cellular proliferation of cancer cells, of the cyclometalated N-heterocyclic complexes on cervical epithelioid carcinoma, hepatocellular carcinoma, leukemia, nasopharyngeal carcinoma, breast carcinoma, melanoma, and lung carcinoma.
(§2) By means of MTT assays, the cytotoxic properties of cyclometalated N-heterocyclic carbene complexes (1-25) were determined toward some established human cancer cell lines including hepatocellular carcinoma (HepG2), cervical epithelioid carcinoma (HeLa), epithelial carcinoma (KB and its camptothecin-resistant cell line KB100), non-small cell lung carcinoma (NCI-H460), leukemia (HL-60), breast carcinoma (MDA-MB-231), melanoma (B16) and nasopharyngeal carcinoma (SUNE1). […] In terms of the IC50 values, they display similar cytotoxic properties compared to the reference complexes cisplatin and camptothecin (CPT).
Background: Formazan colour is commonly taken as a measure of viable cells.

In test [2] the test system is nasopharyngeal carcinoma (SUNE1). Kind of test: MTT cytotoxicity assay, SUNE1. Format: cell-based, human. The following applies: 72 h. The procedure: as §1, §2
The test system of test [3] is lung fibroblast cells (CCD-19Lu). Kind of test: MTT cytotoxicity to non-cancerous cells, CCD-19Lu. The following applies: 72 h, non-cancerous lung fibroblast cells CCD-19Lu. Format: cell-based, human. The procedure:
as §2
Using lung fibroblast cells (CCD-19Lu), the cytotoxicity of the complexes to non-cancerous cells was also examined.

For test [4], the system named is cervical epithelioid carcinoma (HeLa). Put plainly: MTT cytotoxicity assay, HeLa. Format: cell-based, human. The following applies: 72 h. The procedure: as §1, §2
In test [5] the test system is camptothecin-resistant cell line KB100. Put plainly: MTT cytotoxicity assay, KB100. Format: cell-based, human. The following applies: 72 h. The procedure:
as §1, §2

In test [6] the test system is non-small cell lung carcinoma (NCI-H460). Put plainly: MTT cytotoxicity assay, NCI-H460. Format: cell-based, human. The following applies: 72 h. The protocol: as §1, §2
The subject of test [7] is melanoma (B16). Put plainly: MTT cytotoxicity assay, B16. The format is cell-based, mouse. Conditions: 72 h. The procedure:
as §1, §2

For test [8], the system named is epithelial carcinoma (KB). Kind of test: MTT cytotoxicity assay, KB. Format: cell-based, human. The following applies: 72 h. The protocol: as §1, §2
Test [9] has as its system breast carcinoma (MDA-MB-231). Kind of test: MTT cytotoxicity assay, MDA-MB-231. The format is cell-based, human. Conditions: 72 h, MBA-MD-231. The protocol:
as §1, §2

The test system of test [10] is leukemia (HL-60). Put plainly: MTT cytotoxicity assay, HL-60. The format is cell-based, human. The following applies: 72 h. The procedure:
as §1, §2

Test [11] relates to KB cells. Put plainly: Alkaline comet assay for DNA strand breaks. The format is cell-based.

With `CCCn1cc[n+](CCC)[c]1[Pt-2]12[c]3ccccc3-c3cccc([n+]31)-c1cc3ccccc3c[n+]12.F[P-](F)(F)(F)(F)F` (stereo not shown) [Complex 24], the IC50 (as a rule, the concentration needed to halve the response being measured) in test [1] came out at 880 nM; in test [2] it was 710 nM; in test [3], 12 µM; in test [4], 550 nM.
In the same order, the values of `Cc1cc(C)c(-[n+]2ccn(CCCO)[c]2[Pt-2]23[c]4ccccc4-c4cccc([n+]42)-c2cccc[n+]23)c(C)c1.F[P-](F)(F)(F)(F)F` (stereo not shown) [Complex 23] are 780 nM, 940 nM, 7.5 µM and 480 nM.
For the compound `Cn1cc[n+](C)[c]1[Pt-2]12[c]3ccccc3-c3cccc([n+]31)-c1cccc[n+]12.F[P-](F)(F)(F)(F)F` (stereo not shown) [Complex 11], the half-maximal inhibitory concentration (IC50) in test [5] is 0.62 µM; in [6], 580 nM; in test [7] it was 3100 nM; in test [1] it was 310 nM; in test [8], 660 nM; in [9], 1500 nM. Besides, the IC50 in [2] was determined as 510 nM; in test [3] it was 5.7 µM; in [10] it was 580 nM; in test [4] it was 330 nM.
Take `CCCCn1cc[n+](C[n+]2ccn(CCCC)[c]2[Au-]23[c]4ccccc4-c4cccc([n+]42)-c2cccc[c]23)[c]1[Au-]12[c]3ccccc3-c3cccc([n+]31)-c1cccc[c]12.O=S(=O)([O-])C(F)(F)F.O=S(=O)([O-])C(F)(F)F` [Complex 2]: the IC50 in test [5] is 28 µM; in test [6], 3000 nM; in [7], 10000 nM; in [1], 7900 nM; in test [8], 10000 nM; in test [9] it was 4200 nM. The IC50 in test [2] is 3300 nM; in test [3] it was more than 100 µM; in [10], 5900 nM; in test [4] it was 7800 nM.
For the compound `COc1cccc2c1C(=O)c1c(O)c3c(c(O)c1C2=O)C[C@@](O)(C(=O)CO)C[C@@H]3O[C@H]1C[C@H](N)[C@H](O)[C@H](C)O1` [doxorubicin], the “strand breaks on chromosomal DNA (comet assay)” value in [11] (1 μg/ml, 3 h, KB cells) is “induced extensive strand breaks on chromosomal DNA”. Also, the “reversal of DNA cleavage events upon second incubation” value in [11] (second incubation at 55° C. for 10 min) was “not”.
As for `COc1ccc(-c2cc3[n+]4c(c2)-c2cc5ccccc5c[c]2[Au-]4([c]2n(C)cc[n+]2C)[c]2cc4ccccc4cc2-3)cc1.O=S(=O)([O-])C(F)(F)F` [Complex 8], the concentration for half-maximal inhibition (IC50) in test [5] was 18 µM; in test [6], 180 nM; in test [7] it was 560 nM; in [1], 1000 nM; in test [8] it was 420 nM; in test [9], 960 nM. Besides, the IC50 is 260 nM in test [2], 0.89 µM in test [3], 130 nM in test [10] and 500 nM in test [4].
For the compound `CC(C)c1cc(C(C)C)c(-n2cc[n+](-c3c(C(C)C)cc(C(C)C)cc3C(C)C)[c]2[Au-]23[c]4ccccc4-c4cccc([n+]42)-c2cccc[c]23)c(C(C)C)c1.O=S(=O)([O-])C(F)(F)F` [Complex 4], the concentration for half-maximal inhibition (IC50) came to 4.5 µM in test [5]; 6200 nM in [6]; 7700 nM in [7]; 1900 nM in test [1]; 3600 nM in test [8]; 3700 nM in test [9]. For the same compound, the half-maximal inhibitory concentration (IC50) in [2] is 5500 nM; in test [3], 11 µM; in test [10], 1100 nM; in [4] it was 2700 nM.
As to `N.N.[Cl][Pt][Cl]` [cisplatin, reference compound], the IC50 is 14600 nM in test [1], 2400 nM in test [2], more than 100 µM in test [3] and 14900 nM in [4].
The like results for `CCCC[n+]1ccn(CCCn2cc[n+](CCCC)[c]2[Pt-2]23[c]4ccccc4-c4cccc([n+]42)-c2cccc[n+]23)[c]1[Pt-2]12[c]3ccccc3-c3cccc([n+]31)-c1cccc[n+]12.F[P-](F)(F)(F)(F)F.F[P-](F)(F)(F)(F)F` (stereo not shown) [Complex 16] were, in that order, 7100 nM, 5600 nM, 27 µM and 3900 nM.
The like results for `CCCCn1cc[n+](CCO)[c]1[Pt-2]12[c]3ccccc3-c3cccc([n+]31)-c1cc3ccccc3c[n+]12.F[P-](F)(F)(F)(F)F` (stereo not shown) [Complex 25] were, in that order, 680 nM, 880 nM, 11 µM and 450 nM.
Consider `CCCC[n+]1ccn(Cn2cc[n+](CCCC)[c]2[Pt-2]23[c]4ccccc4-c4cccc([n+]42)-c2cccc[n+]23)[c]1[Pt-2]12[c]3ccccc3-c3cccc([n+]31)-c1cccc[n+]12.F[P-](F)(F)(F)(F)F.F[P-](F)(F)(F)(F)F` (stereo not shown) [Complex 15], for which the IC50 in [1] is 9400 nM; in test [2] it was 6400 nM; in test [3] it was 40 µM; in test [4], 8000 nM.
As for `CCn1cc[n+](CC)[c]1[Pt-2]12[c]3ccccc3-c3cccc([n+]31)-c1cccc[n+]12.F[P-](F)(F)(F)(F)F` (stereo not shown) [Complex 12], the IC50 was 0.77 µM in [5]; 570 nM in test [6]; 1800 nM in test [7]; 1300 nM in [1]; 890 nM in test [8]; 1200 nM in test [9]. The IC50 came to 320 nM in test [2], 2.1 µM in [3], 520 nM in [10] and 480 nM in test [4].
Take `CCCn1cc[n+](CCC)[c]1[Pt-2]12[c]3ccccc3-c3cccc([n+]31)-c1cccc[n+]12.F[P-](F)(F)(F)(F)F` (stereo not shown) [Complex 13]: the IC50 in test [5] worked out at 0.13 µM; in test [6], 180 nM; in test [7], 420 nM; in test [1], 1100 nM; in test [8] it was 140 nM; in [9] it was 280 nM. Besides, the half-maximal inhibitory concentration (IC50) worked out at 160 nM in [2], 12 µM in test [3], 560 nM in [10] and 50 nM in test [4].
`CCCCn1cc[n+](C[n+]2ccn(CCCC)[c]2[Au-]23[c]4cc5ccccc5cc4-c4cc(-c5ccc(OC)cc5)cc([n+]42)-c2cc4ccccc4c[c]23)[c]1[Au-]12[c]3cc4ccccc4cc3-c3cc(-c4ccc(OC)cc4)cc([n+]31)-c1cc3ccccc3c[c]12.O=S(=O)([O-])C(F)(F)F.O=S(=O)([O-])C(F)(F)F` [Complex 9]: the IC50 in test [5] stood at 3.8 µM; in [6] it was 5500 nM; in [7], 9100 nM; in test [1], 4500 nM; in [8], 5000 nM; in test [9] it was 6200 nM. Moreover, the IC50 in [2] stood at 4500 nM; in test [3], 9.9 µM; in test [10], 7100 nM; in test [4] it was 7200 nM.
On to `Cc1cc(C)c(-[n+]2ccn(CC(=O)c3ccccc3)[c]2[Au-]23[c]4ccccc4-c4cccc([n+]42)-c2cccc[c]23)c(C)c1.O=S(=O)([O-])C(F)(F)F` [Complex 5], for which the IC50 is 4 µM in test [5]; 9500 nM in [6]; 2100 nM in test [7]; 2600 nM in test [1]; 4400 nM in test [8]; 13000 nM in test [9]. Further, the IC50 came out at 3400 nM in test [2], 11 µM in test [3], 1200 nM in [10] and 3500 nM in test [4].
